# ChEMBL document CHEMBL1201862, “PubChem BioAssay data set” (2004)
# Calls of active or inactive are those of the source.
# Tests used:
# [1] = biological target: T1, Replicative DNA helicase DnaB (Mycobacterium tuberculosis, UniProt P9WMR3); assay: DnaB intein splicing inhibitors, dose response, biochemical, cell-free fluorescence (AID 449749); assay type: functional
# T1 sequence (P9WMR3 whole entry): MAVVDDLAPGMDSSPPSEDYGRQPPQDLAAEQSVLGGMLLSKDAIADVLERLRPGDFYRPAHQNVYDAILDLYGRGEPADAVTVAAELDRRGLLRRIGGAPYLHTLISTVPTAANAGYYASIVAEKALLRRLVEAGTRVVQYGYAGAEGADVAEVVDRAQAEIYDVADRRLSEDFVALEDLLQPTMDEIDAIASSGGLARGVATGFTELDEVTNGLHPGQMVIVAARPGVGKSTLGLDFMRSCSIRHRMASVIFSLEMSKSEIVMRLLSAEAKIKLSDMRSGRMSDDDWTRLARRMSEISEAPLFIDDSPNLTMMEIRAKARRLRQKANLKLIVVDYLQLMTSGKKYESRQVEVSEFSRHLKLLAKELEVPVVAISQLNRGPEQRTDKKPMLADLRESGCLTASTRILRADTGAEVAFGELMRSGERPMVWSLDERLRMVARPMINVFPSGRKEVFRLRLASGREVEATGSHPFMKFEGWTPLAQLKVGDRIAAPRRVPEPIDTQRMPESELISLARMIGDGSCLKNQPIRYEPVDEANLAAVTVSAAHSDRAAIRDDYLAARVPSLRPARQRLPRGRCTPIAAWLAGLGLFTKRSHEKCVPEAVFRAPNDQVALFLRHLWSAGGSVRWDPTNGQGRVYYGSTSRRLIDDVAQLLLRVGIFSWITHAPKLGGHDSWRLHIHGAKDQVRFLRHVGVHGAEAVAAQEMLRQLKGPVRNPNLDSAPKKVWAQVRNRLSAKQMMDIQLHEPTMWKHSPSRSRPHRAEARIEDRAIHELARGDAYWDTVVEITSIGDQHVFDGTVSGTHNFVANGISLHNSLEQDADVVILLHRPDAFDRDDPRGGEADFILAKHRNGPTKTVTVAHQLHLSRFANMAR
# Protein RecA = biological target: T2, Protein RecA (Mycobacterium tuberculosis, UniProt P9WHJ3); assay: Fluorescence Cell-Free Homogeneous Dose Retest to Identify Inhibitors of RecA-Intein Splicing Activity. [Related pubchem assays (depositor defined):AID2097, AID2223, AID489010, AID492950]; assay type: functional
# T2 sequence (P9WHJ3 whole entry): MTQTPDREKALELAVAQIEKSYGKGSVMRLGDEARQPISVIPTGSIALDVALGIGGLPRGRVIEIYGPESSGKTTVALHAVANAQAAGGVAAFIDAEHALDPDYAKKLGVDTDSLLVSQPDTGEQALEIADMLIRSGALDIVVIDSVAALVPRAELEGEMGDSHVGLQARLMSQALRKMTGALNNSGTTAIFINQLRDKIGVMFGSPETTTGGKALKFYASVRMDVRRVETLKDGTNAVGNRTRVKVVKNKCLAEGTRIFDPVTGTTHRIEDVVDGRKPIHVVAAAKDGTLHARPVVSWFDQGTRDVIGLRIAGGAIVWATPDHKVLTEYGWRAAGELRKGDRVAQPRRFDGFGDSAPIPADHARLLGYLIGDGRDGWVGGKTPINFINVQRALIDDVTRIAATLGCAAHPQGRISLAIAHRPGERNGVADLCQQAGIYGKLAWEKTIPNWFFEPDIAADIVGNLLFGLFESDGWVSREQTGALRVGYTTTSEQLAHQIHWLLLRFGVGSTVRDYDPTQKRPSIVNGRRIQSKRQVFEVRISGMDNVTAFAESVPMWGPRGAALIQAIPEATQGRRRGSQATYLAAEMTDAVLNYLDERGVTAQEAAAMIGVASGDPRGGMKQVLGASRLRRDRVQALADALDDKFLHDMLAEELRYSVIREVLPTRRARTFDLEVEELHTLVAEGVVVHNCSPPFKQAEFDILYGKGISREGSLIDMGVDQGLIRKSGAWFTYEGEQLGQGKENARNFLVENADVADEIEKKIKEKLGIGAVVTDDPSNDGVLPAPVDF
# Protein skinhead-1 = biological target: T3, Protein skinhead-1 (Caenorhabditis elegans, UniProt P34707); assay type: functional
# T3 sequence (P34707 whole entry): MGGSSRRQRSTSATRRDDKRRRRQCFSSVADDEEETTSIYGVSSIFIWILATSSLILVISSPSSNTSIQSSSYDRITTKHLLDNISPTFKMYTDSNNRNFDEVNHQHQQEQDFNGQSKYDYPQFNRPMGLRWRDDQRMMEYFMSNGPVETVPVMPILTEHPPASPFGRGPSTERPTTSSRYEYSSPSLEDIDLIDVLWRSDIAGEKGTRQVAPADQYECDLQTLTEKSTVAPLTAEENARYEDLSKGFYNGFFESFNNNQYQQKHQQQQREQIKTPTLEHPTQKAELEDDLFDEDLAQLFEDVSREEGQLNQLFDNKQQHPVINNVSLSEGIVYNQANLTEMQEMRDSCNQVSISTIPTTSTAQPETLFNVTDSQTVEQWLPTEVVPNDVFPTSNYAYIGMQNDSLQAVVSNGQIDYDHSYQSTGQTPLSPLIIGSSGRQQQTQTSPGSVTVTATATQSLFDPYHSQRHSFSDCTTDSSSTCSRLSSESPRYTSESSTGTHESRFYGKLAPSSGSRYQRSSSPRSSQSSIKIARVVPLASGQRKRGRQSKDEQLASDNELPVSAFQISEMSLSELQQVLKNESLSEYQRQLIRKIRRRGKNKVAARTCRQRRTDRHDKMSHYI
# [2] = biological target: T4, Polyadenylate-binding protein 1 (Homo sapiens, UniProt P11940); assay: PABP1 MLLE–PAM2 interaction inhibitors, dose response, miRNA deadenylation inhibitor project, biochemical, fluorescence polarization, Cy5-PAM2 peptide, secondary (AID 602260); assay type: functional; conditions: read-out: IC50_Mean
# [3] = biological target: T4, Polyadenylate-binding protein 1; assay: PABP1 MLLE–PAM2 binding inhibitor potency, dose response, biochemical, fluorescence polarization, FITC-PAM2 peptide (AID 602259); assay type: functional; conditions: read-out: IC50_Mean
# Streptokinase A = biological target: T5, Streptokinase A (Streptococcus pyogenes serotype M1, UniProt P10520); assay: S. pyogenes streptokinase expression inhibitors, potency, dose response, plasminogen activation absorbance, OD405 (AID 1914); assay type: functional, Streptococcus pyogenes M1 GAS;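 note: secreted streptokinase activity via plasminogen activation per viability signal from cell pellet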
# T5 sequence (P10520 whole entry): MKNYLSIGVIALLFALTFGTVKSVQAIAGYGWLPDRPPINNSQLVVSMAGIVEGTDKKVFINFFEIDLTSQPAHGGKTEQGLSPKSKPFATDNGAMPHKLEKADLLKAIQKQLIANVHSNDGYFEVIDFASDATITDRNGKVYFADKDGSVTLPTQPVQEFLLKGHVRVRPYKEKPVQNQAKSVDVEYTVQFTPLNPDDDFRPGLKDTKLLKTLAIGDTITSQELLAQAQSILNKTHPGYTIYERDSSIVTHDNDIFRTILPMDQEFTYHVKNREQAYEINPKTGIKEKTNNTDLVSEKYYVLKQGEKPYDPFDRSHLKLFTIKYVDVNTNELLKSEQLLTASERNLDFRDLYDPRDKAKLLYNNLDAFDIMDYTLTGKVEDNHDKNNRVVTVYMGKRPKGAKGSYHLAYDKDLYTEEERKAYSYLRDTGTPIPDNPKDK
# Streptococcus = assay: Group A Streptococcus viability loss, dose response, counter-screen for streptokinase expression inhibitor project, luminescence, BacTiterGlo (AID 1915); assay type: functional, organism-based;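 note: potency for reduction of bacterial viability or growth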
# [4] = tested on: Streptococcus sp. 'group A'; assay: growth inhibition of control SK(-) GAS strain, dose response, counter-screen for streptokinase expression inhibitor project, luminescence, kanamycin, BacTiterGlo, confirmation (AID 1900); assay type: functional, organism-based
# [5] = biological target: T6, Heat shock factor protein 1 (Mus musculus, UniProt P38532); assay: inhibition of MG132-induced HSE-luciferase signal, confirmation, cell-based, NIH3T3, luminescence, dose retest (AID 2382); assay type: functional;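 note: NIH3T3 fibroblasts with HSF1-driven luciferase reporter stressed by proteasome inhibitor MG132; luminescence from HSF1-driven luciferase expression after 8 hours of MG132 stress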
# T6 sequence (P38532 whole entry): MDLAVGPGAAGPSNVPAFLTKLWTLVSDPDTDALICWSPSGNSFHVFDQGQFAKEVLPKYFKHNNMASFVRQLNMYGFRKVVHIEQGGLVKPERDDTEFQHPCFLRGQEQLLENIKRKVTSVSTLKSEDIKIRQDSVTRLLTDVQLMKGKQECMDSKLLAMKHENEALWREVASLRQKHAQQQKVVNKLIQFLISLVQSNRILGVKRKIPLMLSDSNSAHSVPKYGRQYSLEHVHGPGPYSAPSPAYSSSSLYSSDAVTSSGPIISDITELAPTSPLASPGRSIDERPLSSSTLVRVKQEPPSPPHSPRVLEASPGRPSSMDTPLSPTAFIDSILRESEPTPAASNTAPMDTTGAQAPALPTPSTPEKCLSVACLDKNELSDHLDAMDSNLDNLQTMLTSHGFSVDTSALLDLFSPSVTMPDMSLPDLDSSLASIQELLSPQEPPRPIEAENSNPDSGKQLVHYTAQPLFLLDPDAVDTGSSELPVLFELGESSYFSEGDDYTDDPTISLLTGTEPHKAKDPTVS
# [6] = inhibitors of intracellular T. cruzi replication, confirmation, NIH3T3 host cells, beta-gal luminescence (AID 2044); assay type: functional, cell-based;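 note: intracellular parasites grown in NIH/3T3 mouse fibroblasts as host cells; luminescent beta-galactosidase reporter signal from transgenic T. cruzi replicating inside host cells; inhibitors lower the luminescence signal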
# [7] = cytotoxicity toward NIH3T3 fibroblasts, dose response, counter-screen, cell-based, ATP luminescence, mouse fibroblasts (AID 2010); assay type: functional;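 note: cells exposed to compound for about 90 hours before reading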
# Cytochrome P450 3A4 = Cytochrome P450 3A4 (Homo sapiens, UniProt P08684);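 note: CYP3A4 tested as one member of a cytochrome P450 panel screen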
# Cytochrome P450 1A2 = biological target: T7, Cytochrome P450 1A2 (Homo sapiens, UniProt P05177);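 note: PubChem cytochrome P450 panel assay, CYP1A2 panel member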
# T7 sequence (P05177 whole entry): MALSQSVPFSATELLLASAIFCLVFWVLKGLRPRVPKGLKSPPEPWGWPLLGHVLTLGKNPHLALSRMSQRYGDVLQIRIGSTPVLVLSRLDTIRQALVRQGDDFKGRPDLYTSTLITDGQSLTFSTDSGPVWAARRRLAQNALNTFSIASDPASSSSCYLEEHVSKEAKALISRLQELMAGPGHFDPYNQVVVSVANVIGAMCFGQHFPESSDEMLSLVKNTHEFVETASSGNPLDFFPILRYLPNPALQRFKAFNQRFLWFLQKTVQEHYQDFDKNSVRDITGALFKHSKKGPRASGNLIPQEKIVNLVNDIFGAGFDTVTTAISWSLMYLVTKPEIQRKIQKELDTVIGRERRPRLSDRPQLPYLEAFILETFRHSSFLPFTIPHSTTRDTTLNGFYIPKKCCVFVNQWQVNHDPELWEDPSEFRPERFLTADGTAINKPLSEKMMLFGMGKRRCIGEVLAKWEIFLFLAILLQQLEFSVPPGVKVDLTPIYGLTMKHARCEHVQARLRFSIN
# Cytochrome P450 2D6 = Cytochrome P450 2D6 (Homo sapiens, UniProt P10635);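 note: CYP2D6 member of a cytochrome P450 panel assay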
# [8] = P. falciparum Dd2 growth inhibitors, dose response, SYBR Green, cherry-picked samples (AID 1159567); assay type: functional, cell-based
# T4 sequence (P11940 whole entry): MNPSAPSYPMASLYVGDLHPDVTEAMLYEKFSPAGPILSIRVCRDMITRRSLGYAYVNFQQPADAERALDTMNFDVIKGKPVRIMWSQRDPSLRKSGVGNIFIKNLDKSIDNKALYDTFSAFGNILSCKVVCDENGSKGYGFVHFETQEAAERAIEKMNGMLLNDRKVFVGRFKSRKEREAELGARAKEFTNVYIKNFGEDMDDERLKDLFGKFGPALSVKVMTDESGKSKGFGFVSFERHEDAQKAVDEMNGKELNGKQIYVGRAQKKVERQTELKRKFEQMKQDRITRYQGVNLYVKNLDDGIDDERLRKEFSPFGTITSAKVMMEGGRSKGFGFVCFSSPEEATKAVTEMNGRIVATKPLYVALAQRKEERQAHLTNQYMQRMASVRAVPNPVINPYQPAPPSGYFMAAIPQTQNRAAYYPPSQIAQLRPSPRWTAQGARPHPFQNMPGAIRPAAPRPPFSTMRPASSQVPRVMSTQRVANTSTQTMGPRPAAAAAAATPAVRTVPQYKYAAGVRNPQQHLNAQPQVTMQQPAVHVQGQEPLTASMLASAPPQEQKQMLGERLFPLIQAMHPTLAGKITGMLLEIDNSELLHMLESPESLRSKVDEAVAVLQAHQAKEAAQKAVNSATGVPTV
# Chain of Cytochrome P450 3A4 (P08684 whole entry): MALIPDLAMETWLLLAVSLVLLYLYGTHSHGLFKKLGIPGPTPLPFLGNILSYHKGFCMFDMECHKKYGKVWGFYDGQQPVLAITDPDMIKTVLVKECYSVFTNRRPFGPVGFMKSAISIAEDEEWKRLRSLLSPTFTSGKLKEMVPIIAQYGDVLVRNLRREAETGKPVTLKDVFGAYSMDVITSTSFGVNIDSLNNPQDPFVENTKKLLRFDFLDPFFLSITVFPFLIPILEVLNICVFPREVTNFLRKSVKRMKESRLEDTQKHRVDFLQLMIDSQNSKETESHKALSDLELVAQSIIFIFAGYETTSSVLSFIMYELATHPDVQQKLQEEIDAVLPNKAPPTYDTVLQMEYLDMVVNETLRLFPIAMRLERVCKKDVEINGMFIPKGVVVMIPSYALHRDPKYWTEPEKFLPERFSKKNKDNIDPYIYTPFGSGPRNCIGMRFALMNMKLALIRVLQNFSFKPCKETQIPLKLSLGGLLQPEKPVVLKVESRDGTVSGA
# Chain of Cytochrome P450 2D6 (P10635 whole entry): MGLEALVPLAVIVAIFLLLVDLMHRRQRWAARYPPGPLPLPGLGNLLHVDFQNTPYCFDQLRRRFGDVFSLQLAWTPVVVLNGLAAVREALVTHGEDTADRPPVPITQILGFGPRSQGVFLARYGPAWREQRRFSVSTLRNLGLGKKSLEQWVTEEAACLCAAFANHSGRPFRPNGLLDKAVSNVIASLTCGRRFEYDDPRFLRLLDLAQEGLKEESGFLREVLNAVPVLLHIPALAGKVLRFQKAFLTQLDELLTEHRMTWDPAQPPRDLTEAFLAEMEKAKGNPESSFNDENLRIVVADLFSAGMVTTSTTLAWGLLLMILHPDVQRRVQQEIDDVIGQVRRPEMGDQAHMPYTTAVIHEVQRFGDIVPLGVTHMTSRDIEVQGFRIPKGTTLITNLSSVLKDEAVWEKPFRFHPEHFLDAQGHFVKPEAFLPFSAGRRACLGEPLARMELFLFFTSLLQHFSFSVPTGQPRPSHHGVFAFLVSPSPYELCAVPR
smiles,measurement,setting,value
COc1cc(/C=C(\C#N)c2nc3ccccc3o2)ccc1O,AC50,[1],> 380 µM (inactive)
same,EC50,Protein RecA,2.41 µM (active)
Cc1cc2ccccc2n1CCNC(=O)C1CC1,IC50,Protein skinhead-1,> 100 µM (inactive)
Cc1c(NC(=O)Oc2ccccc2)sc(=S)n1C,IC50,[2],> 66 µM (inactive)
same,IC50,[3],> 66 µM (inactive)
Fc1ccc(SCCc2ccncc2)cc1,IC50,[2],> 66 µM (inactive)
same,IC50,[3],> 66 µM (inactive)
O=C(CSc1nc[nH]n1)Nc1ccc(Cl)c(Cl)c1,IC50,Protein skinhead-1,> 100 µM (inactive)
CC(C)c1nc(SCC(=O)Nc2ccc(N3CCOCC3)cc2)c2ccccc2n1,IC50,[2],> 66 µM (inactive)
same,IC50,[3],> 66 µM (inactive)
O=C(CSc1nnc(COc2cccc3ccccc23)o1)N1c2ccccc2CCc2ccccc21,IC50,Protein skinhead-1,> 100 µM (inactive)
Cc1c(C)n(Cc2ccc(F)cc2)c2ccc(C(=O)N3CCN(c4ccccn4)CC3)cc12,EC50,Streptokinase A,146 µM (inconclusive)
same,EC50,Streptococcus,28.4 µM (active)
same,EC50,[4],16.5 µM (active)
same,IC50,Protein skinhead-1,> 100 µM (inactive)
O=[N+]([O-])c1cccc(NC(S)=Nc2nc(-c3ccccc3Cl)cs2)c1,IC50,[2],> 66 µM (inactive)
same,IC50,[3],> 66 µM (inactive)
Fc1ccc2c(c1)c1nnc(S)nc1n2CCc1ccccc1,IC50,[2],> 66 µM (inactive)
same,IC50,[3],> 66 µM (inactive)
COC(=O)C(C#N)C(c1cccnc1)c1c(C)n[nH]c1O (stereo not drawn),AC50,[1],3.08 µM (active)
same,EC50,Protein RecA,1.2 µM (active)
O=C(CCl)N1N=C(c2cccs2)CC1c1ccco1 (stereo not drawn),EC50,[5],6.29 µM (active)
same,AC50,[1],25.1 µM (active)
same,EC50,[6],1.98 µM (active)
same,EC50,[7],4.92 µM (active)
same,EC50,Protein RecA,4.21 µM (active)
O=C(CSc1nc2ccccc2c(=O)n1CCCO)NCc1ccccc1,IC50,[2],> 66 µM (inactive)
same,AC50,Cytochrome P450 3A4,3.55 µM (inconclusive)
same,IC50,[3],> 66 µM (inactive)
same,AC50,Cytochrome P450 1A2,31.6 µM (inconclusive)
same,AC50,Cytochrome P450 2D6,39.8 µM (inconclusive)
CC1(Cc2cccc(C(F)(F)F)c2)C(=O)Nc2ccc(-c3ccc(F)c(Cl)c3)cc21 (stereo not drawn),IC50,Protein skinhead-1,> 100 µM (inactive)
Cn1nccc1-c1ccc(C(=O)Nc2cccc(NS(C)(=O)=O)c2)c2occc12,IC50,Protein skinhead-1,> 100 µM (inactive)
O=C(Nc1cccc(F)c1)N1CC(=O)N2[C@H](C1)[C@@H](c1ccc(C#CC3CC3)cc1)[C@@H]2CO,AC50,[8],8.07 µM (active)
CCC(=O)Nc1ccc2c(c1)OC[C@@H](C)N(Cc1cccc(F)c1)C[C@@H](C)[C@H](OC)CN(C)C2=O,AC50,[8],3.64 µM (active)
Cc1ccccc1S(=O)(=O)N1CC(=O)N2[C@H](CO)[C@H](c3ccc(C#CC4CC4)cc3)[C@@H]2C1,AC50,[8],8.89 µM (active)
C[C@H](CO)N1C[C@H](C)[C@@H](CN(C)CC2CCCCC2)Oc2ccc(NC(=O)Nc3ccc(F)cc3)cc2CC1=O,AC50,[8],6.76 µM (active)
C[C@H](CO)N1C[C@H](C)[C@H](CN(C)S(=O)(=O)c2cccs2)OCc2ccccc2-c2c(n(C)c3ccccc23)C1=O,AC50,[8],26.1 µM (active)
